# From patent publication US9289364B2, “Tyrosinase inhibitors” (Avon Products, Inc., priority 2013, dated 2016)
# Experiments:
# [1] = test system: B16 mouse melanoma cells; experiment: Inhibition of melanin production in B16 melanoma cell assay; format: cell-based; details: 4 days, alpha MSH 2 nanogram/ml, normalized to cell viability (MTT)
# Description: The effects of various test compounds on melanin levels were determined by performing assays using B16 melanoma cells. These cells are known to constitutively produce melanin and are a commonly utilized and accepted model system for monitoring the inhibition of melanin synthesis. The B16 mouse melanoma cells were seeded (ATCC, cat. #: CRL-6475) into 96-well tissue culture-treated plates (BD Falcon) and treated with test actives or controls in phenol red free DMEM (Mediatech; cat. #: 17-205-CV) with 2 nanogram/ml of alpha MSH (Fluka; cat #:63605). The cells were examined for their ability to modulate pigment formation. […] Tests were performed in 6 replicates each. Following the treatment period (4 days), the level of pigment produced or melanin synthesized was quantified by reading the absorbance at 540 nm using a standard microplate reader (Tecan Group Ltd.).
# After quantifying the amount of melanin, cell viability was determined using the MTT conversion method. The MTT conversion method measures the reduction of the MTT dye from a yellow colored, water-soluble, tetrazolium salt to a bluish-purple colored insoluble formazan precipitate by NAD(P)H-dependent microsomal dehydrogenase enzymes, which only function in viable cells. The intensity of the blue color is indicative of cell viability. After quantifying the amount of melanin pigment produced, the cells were exposed to MTT dye solution (1 mg/ml) for two to three hours. Formazan material was solubilized with reagent alcohol (95% ethanol: 5% isopropanol) and shaken on an orbital shaker for 15-30 minutes. MTT dye uptake and conversion by viable cells were determined by measuring the extracted formazan at 570 nm using a microplate reader. Total pigmentation was calculated, normalized to cell viability values and expressed as the average percent change in melanin activity relative to control of the six experiments performed.
# [2] = test system: Mushroom tyrosinase; experiment: Mushroom tyrosinase assay (conversion of L-Tyrosine to DOPAchrome); format: biochemical; details: 25° C., 30 min, absorbance 492 nm
# Description: Mushroom tyrosinase and L-Tyrosine were obtained from Sigma-Aldrich, Inc. (St. Louis, Mo.). The enzyme activity was measured in buffer containing 100 mM phosphate buffer pH 6.8, 5% absolute ethanol, 2 micrograms/milliliter mushroom tyrosinase, and 0.2 mg/ml L-Tyrosine. The reaction (conversion of L-Tyrosine to DOPAchrome) was conducted in triplicates at 25° C. for 30 min, and absorbance was then measured at 492 nm. Kojic Acid was used as a positive control inhibitor in these assays. Percent change in tyrosinase activity relative to vehicle control was calculated.
Tyrosinase Inhibition (percent change in tyrosinase activity compared to DMSO vehicle control) ([2]; concentration 0.0010%) [%],Tyrosinase Inhibition (percent change in tyrosinase activity compared to DMSO vehicle control) ([2]; concentration 0.0100%) [%],Compound,B16 Assay Pigmentation Decrease (percent change in melanin compared to DMSO vehicle control) ([1]; concentration 0.0001%) [%],B16 Assay Pigmentation Decrease (percent change in melanin compared to DMSO vehicle control) ([1]; concentration 0.0010%) [%]
−46,–,Cc1cc(C)cc(Nc2nc(-c3ccc(O)cc3O)cs2)c1 [AV4662],−57,–
−75,−59,CN1CCN(c2nc(-c3ccc(O)cc3O)cs2)CC1 [AV5370],−10,−77
